From article PMC5418314, “First-in-human phase I study of SOR-C13, a TRPV6 calcium channel inhibitor, in patients with advanced solid tumors” (Investigational New Drugs, 2017)
Ends that are not written are not given here.

Columns and labels:
[1] = half-life in the blood compartment, mice; assay type: in vivo
[2] = GLP toxicology study, daily IV bolus for 28 days, dog; assay type: in vivo, beagle dogs
Method: (§1) Anatomical pathology provided a No Observable Adverse Effect Level (NOAEL) of 200 mg/kg/day for rats. […] With results indicating antitumor activity in animal studies, a small toxicological footprint, a novel oncology target and a mechanism of action supported by the literature, SOR-C13 was formulated for intravenous injection (IV) for clinical evaluation. Here we present results of the ‘first-in-human’, Phase I clinical study evaluating SOR-C13 in adults with advanced solid tumors of epithelial origin refractory to all standard-of-care treatments.

[3] = GLP toxicology study, daily IV bolus for 28 days, rat; assay type: in vivo
Method: as §1

[4] = peptide degradation in rat plasma; assay type: in vitro ADME
[5] = half-life in the blood compartment, rat; assay type: in vivo
[6] = peptide degradation in human plasma; assay type: in vitro ADME
Phase I ECG assessment = assay type: in vivo, human
Source text: A Safety Monitoring Committee (SMC) oversaw the safety aspects of the study. Safety endpoints included: incidence of adverse events (AEs) and serious AEs (SAEs), withdrawals due to AEs, Dose Limiting Toxicities (DLTs), infusion reactions, deaths on study, vital signs, electrocardiogram (ECGs), clinical laboratory parameters and changes to the treatment regimen (dose delay, dose decrease) due to AEs. The National Cancer Institute (NCI) Common Terminology Criteria for Adverse Events (CTCAE) Version 4.0 was used to grade the severity of AEs.

[7] = system: voltage-gated potassium channels; experiment: voltage-gated potassium channel activity; assay type: biochemical

For KEFLHPSKVDLPR [SOR-C13], the “half-life in the blood compartment” value [1] was under 5 min, the antigenicity [2] was “no antigenicity” and the cardiovascular toxicity [2] was “no cardiovascular toxicity”. The toxicity [2] was “minimal toxicity”, the antigenicity [3] was “no antigenicity” and the cardiovascular toxicity [3] was “no cardiovascular toxicity”. The toxicity [3] was “minimal toxicity”, the peptide degradation half-life [4] was “about 1 h” and the “half-life in the blood compartment” value [5] was under 5 min. The peptide degradation half-life [6] was “about 1 h”, the “mean changes in QTc intervals compared to pre-infusion values” (Phase I ECG assessment; 90-min infusions (N = 18), Cycle 1) was −4.2 to +12.7 msec and the ECG abnormalities (Phase I ECG assessment; during the study) was “No clinically significant ECG abnormalities”. For the same sequence, the “QT or QTc prolongations above 500 msec” value (Phase I ECG assessment; during the study) was “no QT or QTc prolongations above 500 msec”, the “QTc prolongation >60 msec compared to baseline or same-day pre-dose values” (Phase I ECG assessment; during the study) was “no patient experienced QTc prolongation >60 msec” and the “modulation of channel activity” value [7] was “no modulation of channel activity”.
